{
  "source": "ChEMBL document CHEMBL4813985",
  "about": "“Lead optimization generates selenium-containing miconazole CYP51 inhibitors with improved pharmacological profile for the treatment of fungal infections” (Eur J Med Chem, 2021)",
  "key": {"[1]": {"molecular_target": "T1, Lanosterol 14-alpha demethylase (Candida albicans (strain SC5314 / ATCC MYA-2876) (Yeast), UniProt P10613)", "T1 sequence (P10613 whole entry)": "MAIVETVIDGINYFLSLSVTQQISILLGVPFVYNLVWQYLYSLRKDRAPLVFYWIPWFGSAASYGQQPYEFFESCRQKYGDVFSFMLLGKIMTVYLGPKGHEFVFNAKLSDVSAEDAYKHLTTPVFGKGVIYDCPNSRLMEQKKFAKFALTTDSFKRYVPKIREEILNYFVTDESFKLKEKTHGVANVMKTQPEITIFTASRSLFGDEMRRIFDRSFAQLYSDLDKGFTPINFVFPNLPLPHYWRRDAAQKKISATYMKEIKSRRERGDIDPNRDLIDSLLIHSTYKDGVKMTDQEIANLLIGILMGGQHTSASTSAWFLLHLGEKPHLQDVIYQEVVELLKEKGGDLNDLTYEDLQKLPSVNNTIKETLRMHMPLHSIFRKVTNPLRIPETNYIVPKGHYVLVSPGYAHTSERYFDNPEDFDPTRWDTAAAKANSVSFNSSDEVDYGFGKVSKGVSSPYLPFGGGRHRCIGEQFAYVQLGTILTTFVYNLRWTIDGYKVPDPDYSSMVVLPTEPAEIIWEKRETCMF", "test": "Inhibition of CYP51 in Candida albicans ATCC SC5314 assessed as Eburicol level at 0.5 ug/ml after 16 hrs by GC-MS analysis (reference value: 0%)", "design": "scale not given: the % may be the effect or the level left", "conditions": "candida albicans sc5314, 16 h, at 0.5 µg/mL"}, "Candida albicans [2]": {"test_system": "Candida albicans", "test": "Anti-biofilm activity in Candida albicans CPCC400616 assessed as inhibition of biofilm formation incubated for 24 hrs with 3 hrs precultured fungal suspension by XTT assay", "format": "functional"}, "[3]": {"molecular_target": "T1, Lanosterol 14-alpha demethylase", "test": "Inhibition of CYP51 in Candida albicans ATCC SC5314 assessed as lanosterol level at 8 ug/ml after 16 hrs by GC-MS analysis (reference value: 1.7%)", "design": "scale not given: the % may be the effect or the level left", "conditions": "candida albicans sc5314, 16 h, at 8 µg/mL"}, "HL-60": {"test_system": "HL-60", "test": "Cytotoxicity against human HL-60 cells assessed as reduction in cell viability incubated for 96 hrs by MTT assay", "format": "cell-based", "conditions": "HL-60, 96 h"}, "Candida albicans [4]": {"test_system": "Candida albicans", "test": "Anti-biofilm activity in Candida albicans CPCC400616 assessed as inhibition of biofilm formation at 32 ug/ml incubated for 24 hrs with 3 hrs precultured fungal suspension by XTT assay relative to control", "format": "functional"}, "Candida albicans [5]": {"test_system": "Candida albicans", "test": "Fungicidal activity against Candida albicans CPCC400616 at 2 ug/ml incubated for 24 hrs and measured after 24 hrs culturing on PDA plate by time-kill kinetics analysis", "format": "functional, organism-based", "conditions": "dose 2.0 µg/ml, time 48.0 hrs"}, "[6]": {"molecular_target": "T1, Lanosterol 14-alpha demethylase", "test": "Inhibition of CYP51 in Candida albicans ATCC SC5314 assessed as ergosterol level at 0.03125 ug/ml after 16 hrs by GC-MS analysis (reference value: 98.3%)", "design": "scale not given: the % may be the effect or the level left", "conditions": "candida albicans sc5314, 16 h, at 0.03125 µg/mL"}, "Candida albicans [7]": {"test_system": "Candida albicans", "test": "Ratio of MFC for Candida albicans CPCC400616 incubated for 48 hrs followed by culturing on PDA plate for 24 hrs to MIC for Candida albicans CPCC400616 measured after 24 hrs", "format": "functional"}, "[8]": {"molecular_target": "T1, Lanosterol 14-alpha demethylase", "test": "Inhibition of CYP51 in Candida albicans ATCC SC5314 assessed as Obtusifoliol level at 8 ug/ml after 16 hrs by GC-MS analysis (reference value: 0%)", "design": "scale not given: the % may be the effect or the level left", "conditions": "candida albicans sc5314, 16 h, at 8 µg/mL"}, "Erythrocyte": {"test_system": "Erythrocyte", "test": "Hemolytic activity in rabbit RBC measured after 3 hrs by microplate reader assay", "format": "ADME, cell-based, Oryctolagus cuniculus"}, "[9]": {"molecular_target": "T1, Lanosterol 14-alpha demethylase", "test": "Inhibition of CYP51 in Candida albicans ATCC SC5314 assessed as lanosterol level at […] ug/ml after 16 hrs by GC-MS analysis (reference value: 1.7%)", "design": "scale not given: the % may be the effect or the level left", "conditions": "candida albicans sc5314, 16 h, dose 0.125 µg/ml"}, "[10]": {"test": "Metabolic stability in mouse liver microsomes assessed as half life", "format": "ADME, Microsome"}, "Candida albicans [11]": {"test_system": "Candida albicans", "test": "Antifungal activity against fluconazole-resistant Candida albicans 904 assessed as inhibition of microbial growth after 24 hrs by broth microdilution method", "format": "functional"}, "Candida albicans [12]": {"test_system": "Candida albicans", "test": "Antifungal activity against Candida albicans ATCC SC5314 infected in mouse model of candidiasis assessed as reduction in kidney fungal burden at 0.6 mg/kg/day, ip dosed at 2 hrs post infection and dosed for 4 days", "format": "functional, organism-based", "conditions": "time 4.0 day"}, "Candida albicans [13]": {"test_system": "Candida albicans", "test": "Anti-biofilm activity in Candida albicans CPCC400616 assessed as inhibition of biofilm formation at 16 ug/ml incubated for 24 hrs with 3 hrs precultured fungal suspension by XTT assay relative to control", "format": "functional"}, "Candida albicans [14]": {"test_system": "Candida albicans", "test": "Antifungal activity against fluconazole-resistant Candida albicans 632 assessed as inhibition of microbial growth after 24 hrs by broth microdilution method", "format": "functional"}, "Candida albicans [15]": {"test_system": "Candida albicans", "test": "Antifungal activity against Candida albicans ATCC SC5314 infected in mouse model of candidiasis assessed as reduction in kidney fungal burden at 0.4 mg/kg/day, ip dosed at 2 hrs post infection and dosed for 4 days", "format": "functional, organism-based", "conditions": "time 4.0 day"}, "MCF-10A": {"test_system": "MCF-10A", "test": "Cytotoxicity against human MCF-10A cells assessed as reduction in cell viability incubated for 96 hrs by MTT assay", "format": "cell-based", "conditions": "read-out: IC50"}, "[16]": {"test": "Half life in Sprague-Dawley rat at 5 mg/kg, po by LC-MS analysis", "format": "ADME, organism-based", "conditions": "in vivo"}, "Candida albicans [17]": {"test_system": "Candida albicans", "test": "Fungicidal activity against Candida albicans CPCC400616 incubated for 24 hrs and measured after 24 hrs culturing on PDA plate by time-kill kinetics analysis", "format": "functional, organism-based", "conditions": "dose 0.25-2 µg/ml, time 48.0 hrs"}, "[18]": {"test": "Selectivity ratio of IC50 for human HL-60 cells to MIC for Candida albicans CPCC400616", "format": "toxicity"}, "[19]": {"test": "Selectivity ratio of IC50 for human MCF-10A cells to MIC for Candida albicans CPCC400616", "format": "toxicity"}, "[20]": {"test": "Half life in Sprague-Dawley rat at 2 mg/kg, iv by LC-MS analysis", "format": "ADME, organism-based", "conditions": "in vivo"}, "[21]": {"test": "Oral bioavailability in Sprague-Dawley rat at 5 mg/kg by LC-MS analysis", "format": "ADME, organism-based", "conditions": "in vivo"}, "Candida albicans [22]": {"test_system": "Candida albicans", "test": "Antifungal activity against fluconazole-resistant Candida albicans CaR assessed as inhibition of microbial growth after 24 hrs by broth microdilution method", "format": "functional"}, "Candida albicans [23]": {"test_system": "Candida albicans", "test": "Antifungal activity against fluconazole-resistant Candida albicans 17# assessed as inhibition of microbial growth after 24 hrs by broth microdilution method", "format": "functional"}, "[24]": {"test": "AUC (0 to t) in Sprague-Dawley rat at 5 mg/kg, po by LC-MS analysis", "format": "ADME, organism-based", "design": "dose 5 mg/kg", "conditions": "in vivo"}, "[25]": {"test": "AUC (0 to t) in Sprague-Dawley rat at 2 mg/kg, iv by LC-MS analysis", "format": "ADME, organism-based", "design": "dose 2 mg/kg", "conditions": "in vivo"}, "Candida albicans [26]": {"test_system": "Candida albicans", "test": "Antifungal activity against fluconazole-resistant Candida albicans 901 assessed as inhibition of microbial growth after 24 hrs by broth microdilution method", "format": "functional"}, "[27]": {"test": "Selectivity ratio of IC50 for human PC-3 cells to MIC for Candida albicans CPCC400616", "format": "toxicity"}, "[28]": {"test": "Selectivity ratio of IC50 for human MDA-MB-231 cells to MIC for Candida albicans CPCC400616", "format": "toxicity"}, "Candida albicans [29]": {"test_system": "Candida albicans", "test": "Potency index, ratio of fluconazole MIC to test compound MIC for Candida albicans CPCC400616 measured after 24 hrs by broth microdilution assay", "format": "functional"}, "Candida albicans [30]": {"test_system": "Candida albicans", "test": "Fungicidal activity against Candida albicans CPCC400616 at 2 ug/ml incubated within 8 hrs and measured after 24 hrs culturing on PDA plate by time-kill kinetics analysis (reference value: 5 log10CFU/ml)", "format": "functional", "conditions": "dose 2 µg/ml; time 32 hrs"}},
  "note": "Activity calls are given as the source filed them. The rule behind the calls is not given here.",
  "data": [
    {"smiles": "Clc1ccc(COC(Cn2ccnc2)c2ccc(Cl)cc2Cl)c(Cl)c1", "note": "(stereo not drawn) [MICONAZOLE]", "values": [
      {"measurement": "Activity", "setting": "[1]", "value": 75.1, "unit": "%"},
      {"measurement": "MIC50", "setting": "Candida albicans [2]", "value": 32, "unit": "µg/mL"},
      {"measurement": "MIC80", "setting": "Candida albicans [2]", "value": 128, "unit": "µg/mL"},
      {"measurement": "Activity", "setting": "[3]", "value": 7.4, "unit": "%"},
      {"measurement": "IC50", "setting": "HL-60", "value": 0.8, "unit": "µM"},
      {"measurement": "inhibition at 32 µg/mL", "setting": "Candida albicans [4]", "value": 50, "unit": "%"},
      {"measurement": "Activity", "setting": "Candida albicans [5]", "value": "Active"},
      {"measurement": "Activity", "setting": "[6]", "value": 12.2, "unit": "%"},
      {"measurement": "Ratio", "setting": "Candida albicans [7]", "value": 8},
      {"measurement": "Activity", "setting": "[8]", "value": 7.8, "unit": "%"},
      {"measurement": "MHC", "setting": "Erythrocyte", "value": 8, "unit": "µg/mL"},
      {"measurement": "Activity", "setting": "[9]", "value": 9.5, "unit": "%"},
      {"measurement": "half-life", "setting": "[10]", "value": 0.138, "unit": "h"}
    ]},
    {"smiles": "Fc1ccc([Se]C(Cn2ccnc2)c2ccc(F)cc2F)cc1", "note": "(stereo not drawn)", "values": [
      {"measurement": "Activity", "setting": "[1]", "value": 75.1, "unit": "%"},
      {"measurement": "MIC", "setting": "Candida albicans [11]", "value": 0.06, "unit": "µg/mL"},
      {"measurement": "MIC50", "setting": "Candida albicans [2]", "value": 8, "unit": "µg/mL"},
      {"measurement": "MIC80", "setting": "Candida albicans [2]", "value": 16, "unit": "µg/mL"},
      {"measurement": "Activity", "setting": "[3]", "value": 5.7, "unit": "%"},
      {"measurement": "Activity", "setting": "Candida albicans [12]", "value": "Active"},
      {"measurement": "inhibition at 16 µg/mL", "setting": "Candida albicans [13]", "value": 80, "unit": "%"},
      {"measurement": "MIC", "setting": "Candida albicans [14]", "value": 0.5, "unit": "µg/mL"},
      {"measurement": "Activity", "setting": "Candida albicans [15]", "value": "Active"},
      {"measurement": "IC50", "setting": "HL-60", "value": 24.8, "unit": "µM"},
      {"measurement": "IC50", "setting": "MCF-10A", "value": 59.4, "unit": "µM"},
      {"measurement": "Activity", "setting": "[6]", "value": 8.7, "unit": "%"},
      {"measurement": "half-life", "setting": "[16]", "value": 1.93, "unit": "h"},
      {"measurement": "Activity", "setting": "Candida albicans [17]", "value": "Dose-Dependent Effect"},
      {"measurement": "selectivity ratio", "setting": "[18]", "value": 38},
      {"measurement": "selectivity ratio", "setting": "[19]", "value": 38},
      {"measurement": "half-life", "setting": "[20]", "value": 1.89, "unit": "h"},
      {"measurement": "bioavailability", "setting": "[21]", "value": 22.3, "unit": "%"},
      {"measurement": "Activity", "setting": "[8]", "value": 10.2, "unit": "%"},
      {"measurement": "MIC", "setting": "Candida albicans [22]", "value": 1, "unit": "µg/mL"},
      {"measurement": "MIC", "setting": "Candida albicans [23]", "value": 0.06, "unit": "µg/mL"},
      {"measurement": "AUC(0-t)", "setting": "[24]", "value": 1260, "unit": "ng·h/mL"},
      {"measurement": "AUC(0-t)", "setting": "[25]", "value": 2250, "unit": "ng·h/mL"},
      {"measurement": "MIC", "setting": "Candida albicans [26]", "value": 0.5, "unit": "µg/mL"},
      {"measurement": "selectivity ratio", "setting": "[27]", "value": 38},
      {"measurement": "selectivity ratio", "setting": "[28]", "value": 38},
      {"measurement": "Ratio", "setting": "Candida albicans [29]", "value": 8},
      {"measurement": "Activity", "setting": "Candida albicans [30]", "value": 2, "unit": "log10CFU/ml"},
      {"measurement": "Activity", "setting": "[9]", "value": 9.9, "unit": "%"},
      {"measurement": "half-life", "setting": "[10]", "value": 0.323, "unit": "h"}
    ]}
  ]
}
